In PubChem BioAssay AID248 (DTP/NCI, 2004):
Several values for one entry are separate records, joined by “and”; a condition that tells them apart may be missing. Equal entries are not always repeated. Inconclusive results and toxic doses are left out.

System: L1210 leukemia ip in BDF1 mice, survival T/C
Assay: NCI In Vivo Anticancer Drug Screen. Data for tumor model L1210 Leukemia (intraperitoneal) in B6D2F1 (BDF1) mice
Settings: endpoint: mean survival time, higher = longer survival
Method in brief: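 Tumor was transplanted into mice, which were then dosed with test compound or vehicle alone. Survival was recorded for each group, and the treated figure was expressed relative to the control figure.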

## COC(C(=O)C(O)C(C)O)C1Cc2cc3cc(OC4CC(OC(C)=O)C(OC5CC(O)C(OC)C(C)O5)C(C)O4)cc(O)c3c(O)c2C(=O)C1OC1CC(OC2CC(OC3CC(C)(O)C(OC(=O)C(C)C)C(C)O3)C(O)C(C)O2)C(O)C(C)O1 (centres undefined)
dose: 1.5 mg/kg/injection, schedule: Q02DX009 (ip), vehicle: carboxymethylcellulose (CMC)
  T/C: 162 % of control
dose: 1.6 mg/kg/injection, schedule: Q01DX013 (ip), vehicle: saline
  T/C: 163 % of control
dose: 2.0 mg/kg/injection, schedule: Q01DX001 (ip), vehicle: other
  T/C: 108 % of control
dose: 2.0 mg/kg/injection, schedule: Q01DX001 (ip), vehicle: saline
  T/C: 116 % of control and 123 % of control
dose: 2.0 mg/kg/injection, schedule: Q01DX005 (ip), vehicle: carboxymethylcellulose (CMC)
  T/C: 123 % of control
dose: 2.0 mg/kg/injection, schedule: Q01DX006 (iv), vehicle: carboxymethylcellulose (CMC)
  T/C: 121 % of control
dose: 2.0 mg/kg/injection, schedule: Q01DX009 (ip), vehicle: other
  T/C: 177 % of control
dose: 2.0 mg/kg/injection, schedule: Q01DX009 (ip), vehicle: saline
  T/C: 166 % of control
dose: 2.0 mg/kg/injection, schedule: Q01DX015 (im), vehicle: carboxymethylcellulose (CMC)
  T/C: 121 % of control
dose: 2.0 mg/kg/injection, schedule: Q01DX015 (ip), vehicle: carboxymethylcellulose (CMC)
  T/C: 195 % of control
dose: 2.0 mg/kg/injection, schedule: Q01DX015 (oral), vehicle: carboxymethylcellulose (CMC)
  T/C: 101 % of control
dose: 2.0 mg/kg/injection, schedule: Q01DX015 (sc), vehicle: carboxymethylcellulose (CMC)
  T/C: 114 % of control
dose: 2.0 mg/kg/injection, schedule: Q01DX017 (ip), vehicle: carboxymethylcellulose (CMC)
  T/C: 184 % of control
dose: 2.0 mg/kg/injection, schedule: Q01DX Z (ip), vehicle: saline
  T/C: 106 % of control
dose: 2.0 mg/kg/injection, schedule: Q02DX009 (ip), vehicle: carboxymethylcellulose (CMC)
  T/C: 192 % of control
dose: 2.0 mg/kg/injection, schedule: Q## X002 (ip), vehicle: carboxymethylcellulose (CMC)
  T/C: 100 % of control
dose: 2.0 mg/kg/injection, schedule: Q## X003 (ip), vehicle: carboxymethylcellulose (CMC)
  T/C: 113 % of control
dose: 2.0 mg/kg/injection, schedule: Q## X005 (ip), vehicle: carboxymethylcellulose (CMC)
  T/C: 150 % of control
dose: 2.0 mg/kg/injection, schedule: Q## X008 (ip), vehicle: carboxymethylcellulose (CMC)
  T/C: 97 % of control
dose: 2.0 mg/kg/injection, schedule: Q## X016 (ip), vehicle: carboxymethylcellulose (CMC)
  T/C: 97 % of control
dose: 2.0 mg/kg/injection, schedule: Q## X024 (ip), vehicle: carboxymethylcellulose (CMC)
  T/C: 103 % of control
dose: 3.0 mg/kg/injection, schedule: Q01DX001 (ip), vehicle: carboxymethylcellulose (CMC)
  T/C: 115 % of control
dose: 3.0 mg/kg/injection, schedule: Q01DX001 (ip), vehicle: saline
  T/C: 118 % of control
dose: 3.0 mg/kg/injection, schedule: Q02DX009 (ip), vehicle: carboxymethylcellulose (CMC)
  T/C: 151 % of control
dose: 3.0 mg/kg/injection, schedule: Q## X005 (ip), vehicle: carboxymethylcellulose (CMC)
  T/C: 152 % of control
dose: 3.2 mg/kg/injection, schedule: Q01DX015 (ip), vehicle: carboxymethylcellulose (CMC)
  T/C: 163 % of control
dose: 4.0 mg/kg/injection, schedule: Q01DX001 (ip), vehicle: other
  T/C: 97 % of control
dose: 4.0 mg/kg/injection, schedule: Q01DX001 (ip), vehicle: saline
  T/C: 104 % of control
dose: 4.0 mg/kg/injection, schedule: Q01DX006 (iv), vehicle: carboxymethylcellulose (CMC)
  T/C: 122 % of control
dose: 4.0 mg/kg/injection, schedule: Q01DX009 (ip), vehicle: carboxymethylcellulose (CMC)
  T/C: 114 % of control
dose: 4.0 mg/kg/injection, schedule: Q01DX009 (ip), vehicle: other
  T/C: 101 % of control
dose: 4.0 mg/kg/injection, schedule: Q01DX015 (im), vehicle: carboxymethylcellulose (CMC)
  T/C: 94 % of control
dose: 4.0 mg/kg/injection, schedule: Q01DX015 (oral), vehicle: carboxymethylcellulose (CMC)
  T/C: 104 % of control
dose: 4.0 mg/kg/injection, schedule: Q01DX015 (sc), vehicle: carboxymethylcellulose (CMC)
  T/C: 115 % of control
dose: 4.0 mg/kg/injection, schedule: Q02DX009 (ip), vehicle: carboxymethylcellulose (CMC)
  T/C: 259 % of control
dose: 4.0 mg/kg/injection, schedule: Q## X002 (ip), vehicle: carboxymethylcellulose (CMC)
  T/C: 106 % of control
dose: 4.0 mg/kg/injection, schedule: Q## X005 (ip), vehicle: carboxymethylcellulose (CMC)
  T/C: 170 % of control
dose: 4.0 mg/kg/injection, schedule: Q## X008 (ip), vehicle: carboxymethylcellulose (CMC)
  T/C: 104 % of control
dose: 4.0 mg/kg/injection, schedule: Q## X016 (ip), vehicle: carboxymethylcellulose (CMC)
  T/C: 97 % of control
dose: 6.0 mg/kg/injection, schedule: Q02DX009 (ip), vehicle: carboxymethylcellulose (CMC)
  T/C: 113 % of control
dose: 8.0 mg/kg/injection, schedule: Q01DX001 (ip), vehicle: carboxymethylcellulose (CMC)
  T/C: 98 % of control
dose: 8.0 mg/kg/injection, schedule: Q01DX001 (ip), vehicle: other
  T/C: 101 % of control
dose: 8.0 mg/kg/injection, schedule: Q01DX015 (oral), vehicle: carboxymethylcellulose (CMC)
  T/C: 97 % of control
dose: 8.0 mg/kg/injection, schedule: Q## X002 (ip), vehicle: carboxymethylcellulose (CMC)
  T/C: 116 % of control
dose: 16.0 mg/kg/injection, schedule: Q01DX015 (oral), vehicle: carboxymethylcellulose (CMC)
  T/C: 101 % of control
dose: 32.0 mg/kg/injection, schedule: Q01DX015 (oral), vehicle: carboxymethylcellulose (CMC)
  T/C: 109 % of control
dose: 62.5 micrograms/kg/injection, schedule: Q01DX Z (ip), vehicle: saline
  T/C: 108 % of control
dose: 125.0 micrograms/kg/injection, schedule: Q01DX Z (ip), vehicle: saline
  T/C: 109 % of control
dose: 250.0 micrograms/kg/injection, schedule: Q01DX Z (ip), vehicle: saline
  T/C: 114 % of control
